Positions of bridges follow the written chain, without caps; N, C: chain ends. Non-standard residues stand in square brackets, D forms with d. Residues, ends and D or L forms follow the SMILES beside them. Lys(Me2) = CN(C)CCCC[C@H](N)C(=O)O
molecular target: hNav1.7 (Homo sapiens, UniProt Q15858); experiment: cell-based; conditions: Nav1.7 Use IC50
Sequence (Q15858 whole entry, looked up): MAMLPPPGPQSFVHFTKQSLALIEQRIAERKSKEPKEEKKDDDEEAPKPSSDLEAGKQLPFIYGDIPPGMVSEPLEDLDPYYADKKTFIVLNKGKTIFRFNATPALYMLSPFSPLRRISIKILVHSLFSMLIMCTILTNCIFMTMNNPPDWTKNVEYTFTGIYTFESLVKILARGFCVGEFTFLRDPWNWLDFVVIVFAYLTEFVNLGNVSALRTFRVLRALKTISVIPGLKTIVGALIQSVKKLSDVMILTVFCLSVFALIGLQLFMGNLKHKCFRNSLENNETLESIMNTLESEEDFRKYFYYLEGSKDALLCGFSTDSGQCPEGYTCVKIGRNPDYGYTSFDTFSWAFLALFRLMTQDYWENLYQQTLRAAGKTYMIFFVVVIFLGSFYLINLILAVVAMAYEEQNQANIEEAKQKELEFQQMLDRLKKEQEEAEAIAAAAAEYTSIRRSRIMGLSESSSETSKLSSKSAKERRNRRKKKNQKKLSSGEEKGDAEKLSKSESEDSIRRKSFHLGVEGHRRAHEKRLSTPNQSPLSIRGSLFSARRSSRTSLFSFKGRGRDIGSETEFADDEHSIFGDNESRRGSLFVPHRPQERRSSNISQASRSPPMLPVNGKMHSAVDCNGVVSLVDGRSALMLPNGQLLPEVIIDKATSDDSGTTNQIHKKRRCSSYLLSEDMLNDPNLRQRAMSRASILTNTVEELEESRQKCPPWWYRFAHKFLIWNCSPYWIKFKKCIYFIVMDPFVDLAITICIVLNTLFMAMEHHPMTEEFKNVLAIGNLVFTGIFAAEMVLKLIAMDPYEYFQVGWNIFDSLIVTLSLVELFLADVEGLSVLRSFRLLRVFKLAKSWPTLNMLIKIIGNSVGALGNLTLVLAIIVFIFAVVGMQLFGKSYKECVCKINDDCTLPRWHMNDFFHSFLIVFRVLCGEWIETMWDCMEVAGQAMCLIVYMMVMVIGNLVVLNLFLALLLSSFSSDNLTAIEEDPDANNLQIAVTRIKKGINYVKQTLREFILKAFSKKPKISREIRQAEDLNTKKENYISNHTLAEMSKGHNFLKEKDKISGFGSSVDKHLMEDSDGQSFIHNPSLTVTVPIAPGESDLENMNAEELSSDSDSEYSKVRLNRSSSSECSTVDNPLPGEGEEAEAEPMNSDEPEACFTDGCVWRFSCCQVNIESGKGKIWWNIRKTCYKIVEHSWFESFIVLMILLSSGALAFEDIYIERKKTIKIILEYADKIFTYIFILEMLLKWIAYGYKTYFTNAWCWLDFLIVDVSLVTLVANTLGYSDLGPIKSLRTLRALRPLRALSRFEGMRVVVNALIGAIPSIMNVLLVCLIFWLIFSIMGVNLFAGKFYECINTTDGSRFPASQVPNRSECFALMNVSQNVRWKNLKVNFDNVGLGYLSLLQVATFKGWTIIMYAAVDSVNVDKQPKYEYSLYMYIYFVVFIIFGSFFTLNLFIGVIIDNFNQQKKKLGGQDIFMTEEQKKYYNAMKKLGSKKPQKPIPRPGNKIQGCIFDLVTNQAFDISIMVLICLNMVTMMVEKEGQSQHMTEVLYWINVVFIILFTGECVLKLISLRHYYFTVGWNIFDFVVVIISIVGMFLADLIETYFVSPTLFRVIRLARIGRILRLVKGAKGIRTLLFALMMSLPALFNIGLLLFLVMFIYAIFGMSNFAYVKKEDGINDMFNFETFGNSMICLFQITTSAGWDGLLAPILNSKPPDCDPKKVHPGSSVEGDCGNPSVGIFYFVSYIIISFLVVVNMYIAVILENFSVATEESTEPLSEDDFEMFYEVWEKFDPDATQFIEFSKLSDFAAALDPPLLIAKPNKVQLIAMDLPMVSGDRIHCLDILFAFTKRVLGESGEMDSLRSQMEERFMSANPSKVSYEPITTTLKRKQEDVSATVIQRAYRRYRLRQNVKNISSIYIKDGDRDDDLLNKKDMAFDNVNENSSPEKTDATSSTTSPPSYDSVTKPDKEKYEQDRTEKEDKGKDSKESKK

Compound | IC50 [nM]
CSCC[C@@H]1NC(=O)[C@H](Cc2ccccc2)NC(=O)CNC(=O)[C@H](CC(C)C)NC(=O)[C@@H](NC(=O)[C@@H](N)CC(=O)O)CSSC[C@@H]2NC(=O)[C@@H]3CSSC[C@@H](C(=O)N[C@@H](CCCCN)C(=O)N[C@@H](Cc4ccc(O)cc4)C(=O)N[C@H](C(=O)N[C@@H](Cc4ccccc4)C(N)=O)C(C)C)NC(=O)[C@H](Cc4c[nH]c5ccccc45)NC(=O)[C@H](CCCCN)NC(=O)[C@H](Cc4cnc[nH]4)NC(=O)[C@H]([C@@H](C)O)NC(=O)[C@H](CCCNC(=N)N)NC(=O)[C@H](CO)NC(=O)[C@H](CSSC[C@H](NC(=O)[C@H](CCCCN)NC(=O)[C@H](CCCNC(=N)N)NC1=O)C(=O)N[C@@H](CCC(=O)O)C(=O)N1CCC[C@H]1C(=O)N[C@@H](CC(=O)O)C(=O)N[C@@H](CC(N)=O)C(=O)N[C@@H](CC(=O)O)C(=O)N[C@@H](CCCCN)C(=O)N3)NC(=O)[C@H](C(C)C)NC(=O)[C@H](CC(C)C)NC(=O)[C@H](CC(N)=O)NC(=O)[C@@H]1CCCN1C(=O)[C@H](CCCNC(=N)N)NC2=O [[Glu10]GpTx-1(1-34)] (H-DCLGFMRKCEPDNDKCCRPNLVCSRTHKWCKYVF-NH2; disulfide 2-17, 9-23, 16-30) | 2
CC[C@H](C)[C@@H]1NC(=O)[C@@H]2CSSC[C@@H]3NC(=O)[C@H](C(C)C)NC(=O)[C@H](CC(C)C)NC(=O)[C@H](CC(N)=O)NC(=O)[C@@H]4CCCN4C(=O)[C@H](CCCNC(=N)N)NC(=O)[C@H](CSSC[C@H](NC(=O)[C@@H](N)CC(=O)O)C(=O)N[C@@H](CC(C)C)C(=O)NCC(=O)N[C@@H](Cc4ccccc4)C(=O)N[C@@H](CCSC)C(=O)N[C@@H](CCCNC(=N)N)C(=O)N[C@@H](CCCCN)C(=O)N2)NC(=O)[C@H](CSSC[C@@H](C(=O)N[C@@H](CCCCN)C(=O)N[C@@H](Cc2ccc(O)cc2)C(=O)N[C@H](C(=O)N[C@@H](Cc2ccccc2)C(N)=O)C(C)C)NC(=O)[C@H](Cc2c[nH]c4ccccc24)NC(=O)[C@H](CCCCN)NC(=O)[C@H](Cc2cnc[nH]2)NC(=O)[C@H]([C@@H](C)O)NC(=O)[C@H](CCCNC(=N)N)NC(=O)[C@H](CO)NC3=O)NC(=O)[C@H](CCCCN)NC(=O)[C@H](CC(=O)O)NC(=O)[C@H](CC(N)=O)NC(=O)[C@H](CC(=O)O)NC(=O)[C@H](CCC(=O)O)NC1=O [[Glu11]GpTx-1(1-34)] (H-DCLGFMRKCIEDNDKCCRPNLVCSRTHKWCKYVF-NH2; disulfide 2-17, 9-23, 16-30) | 2
CC[C@H](C)[C@@H]1NC(=O)[C@@H]2CSSC[C@@H]3NC(=O)[C@H](C(C)C)NC(=O)[C@H](CC(C)C)NC(=O)[C@H](CC(N)=O)NC(=O)[C@@H]4CCCN4C(=O)[C@H](CCCNC(=N)N)NC(=O)[C@H](CSSC[C@H](NC(=O)[C@@H](N)CC(=O)O)C(=O)N[C@@H](CC(C)C)C(=O)NCC(=O)N(C)[C@@H](CC(C)C)C(=O)N[C@@H](CCSC)C(=O)N[C@@H](CCCNC(=N)N)C(=O)N[C@@H](CCCCN)C(=O)N2)NC(=O)[C@H](CSSC[C@@H](C(=O)N[C@@H](CCCCN)C(=O)N[C@@H](Cc2ccc(O)cc2)C(=O)N[C@H](C(=O)N[C@@H](Cc2ccccc2)C(N)=O)C(C)C)NC(=O)[C@H](Cc2c[nH]c4ccccc24)NC(=O)[C@H](CCCCN)NC(=O)[C@H](Cc2cnc[nH]2)NC(=O)[C@H]([C@@H](C)O)NC(=O)[C@H](CCCNC(=N)N)NC(=O)[C@H](CO)NC3=O)NC(=O)[C@H](CCCCN)NC(=O)[C@H](CC(=O)O)NC(=O)[C@H](CC(N)=O)NC(=O)[C@H](CC(=O)O)NC(=O)[C@@H]2CCCN2C1=O [[NMeLeu5]GpTx-1(1-34)] | 26
CCC[C@@H]1NC(=O)CNC(=O)[C@H](CC(C)C)NC(=O)[C@@H](NC(=O)[C@@H](N)CC(=O)O)CSSC[C@@H]2NC(=O)[C@@H]3CSSC[C@@H](C(=O)N[C@@H](CCCCN)C(=O)N[C@@H](Cc4ccc(O)cc4)C(=O)N[C@H](C(=O)N[C@@H](Cc4ccccc4)C(N)=O)C(C)C)NC(=O)[C@H](Cc4c[nH]c5ccccc45)NC(=O)[C@H](CCCCN)NC(=O)[C@H](Cc4cnc[nH]4)NC(=O)[C@H]([C@@H](C)O)NC(=O)[C@H](CCCNC(=N)N)NC(=O)[C@H](CO)NC(=O)[C@H](CSSC[C@H](NC(=O)[C@H](CCCCN)NC(=O)[C@H](CCCNC(=N)N)NC(=O)[C@H](CCSC)NC1=O)C(=O)N[C@@H]([C@@H](C)CC)C(=O)N1CCC[C@H]1C(=O)N[C@@H](CC(=O)O)C(=O)N[C@@H](CC(N)=O)C(=O)N[C@@H](CC(=O)O)C(=O)N[C@@H](CCCCN)C(=O)N3)NC(=O)[C@H](C(C)C)NC(=O)[C@H](CC(C)C)NC(=O)[C@H](CC(N)=O)NC(=O)[C@@H]1CCCN1C(=O)[C@H](CCCNC(=N)N)NC2=O [[Nva5]GpTx-1(1-34)] | 38
CC[C@H](C)[C@@H]1NC(=O)[C@@H]2CSSC[C@@H]3NC(=O)[C@H](C(C)C)NC(=O)[C@H](CC(C)C)NC(=O)[C@H](CC(N)=O)NC(=O)[C@@H]4CCCN4C(=O)[C@H](CCCNC(=N)N)NC(=O)[C@H](CSSC[C@H](NC(=O)[C@@H](N)CC(=O)O)C(=O)N[C@@H](CC(C)C)C(=O)NCC(=O)N[C@@H](C(C)(C)C)C(=O)N[C@@H](CCSC)C(=O)N[C@@H](CCCNC(=N)N)C(=O)N[C@@H](CCCCN)C(=O)N2)NC(=O)[C@H](CSSC[C@@H](C(=O)N[C@@H](CCCCN)C(=O)N[C@@H](Cc2ccc(O)cc2)C(=O)N[C@H](C(=O)N[C@@H](Cc2ccccc2)C(N)=O)C(C)C)NC(=O)[C@H](Cc2c[nH]c4ccccc24)NC(=O)[C@H](CCCCN)NC(=O)[C@H](Cc2cnc[nH]2)NC(=O)[C@H]([C@@H](C)O)NC(=O)[C@H](CCCNC(=N)N)NC(=O)[C@H](CO)NC3=O)NC(=O)[C@H](CCCCN)NC(=O)[C@H](CC(=O)O)NC(=O)[C@H](CC(N)=O)NC(=O)[C@H](CC(=O)O)NC(=O)[C@@H]2CCCN2C1=O [[Tle5]GpTx-1(1-34)] | 23

same assay, conditions: read-out: Nav1.7 Use IC50

Compound | IC50 [nM]
CC[C@H](C)[C@@H]1NC(=O)[C@@H]2CSSC[C@@H]3NC(=O)[C@H](C(C)C)NC(=O)[C@H](CC(C)C)NC(=O)[C@H](CC(N)=O)NC(=O)[C@@H]4CCCN4C(=O)[C@H](CCCNC(=N)N)NC(=O)[C@H](CSSC[C@H](NC(=O)[C@@H](N)CC(=O)O)C(=O)N[C@@H](CC(C)C)C(=O)NCC(=O)N[C@@H](C4CCCC4)C(=O)N[C@@H](CCSC)C(=O)N[C@@H](CCCNC(=N)N)C(=O)N[C@@H](CCCCN)C(=O)N2)NC(=O)[C@H](CSSC[C@@H](C(=O)N[C@@H](CCCCN)C(=O)N[C@@H](Cc2ccc(O)cc2)C(=O)N[C@H](C(=O)N[C@@H](Cc2ccccc2)C(N)=O)C(C)C)NC(=O)[C@H](Cc2c[nH]c4ccccc24)NC(=O)[C@H](CCCCN)NC(=O)[C@H](Cc2c[nH]cn2)NC(=O)[C@H]([C@@H](C)O)NC(=O)[C@H](CCCNC(=N)N)NC(=O)[C@H](CO)NC3=O)NC(=O)[C@H](CCCCN)NC(=O)[C@H](CC(=O)O)NC(=O)[C@H](CC(N)=O)NC(=O)[C@H](CC(=O)O)NC(=O)[C@@H]2CCCN2C1=O [[Cpg5]GpTx-1(1-34)] | 5
CC[C@H](C)[C@@H]1NC(=O)[C@@H]2CSSC[C@@H]3NC(=O)[C@H](C(C)C)NC(=O)[C@H](CC(C)C)NC(=O)[C@H](CC(N)=O)NC(=O)[C@@H]4CCCN4C(=O)[C@H](CCCNC(=N)N)NC(=O)[C@H](CSSC[C@H](NC(=O)[C@@H](N)CC(=O)O)C(=O)N[C@@H](CC(C)C)C(=O)NCC(=O)N[C@@H](Cc4ccccc4)C(=O)N[C@@H](CCSC)C(=O)N[C@@H](CCCNC(=N)N)C(=O)N[C@@H](CCCCN)C(=O)N2)NC(=O)[C@H](CSSC[C@@H](C(=O)N[C@@H](CCCCN)C(=O)N[C@@H](Cc2ccc(O)cc2)C(=O)N[C@H](C(=O)N[C@@H](Cc2ccccc2)C(N)=O)C(C)C)NC(=O)[C@H](Cc2c[nH]c4ccccc24)NC(=O)[C@H](CCC(N)=O)NC(=O)[C@H](Cc2c[nH]cn2)NC(=O)[C@H]([C@@H](C)O)NC(=O)[C@H](CCCNC(=N)N)NC(=O)[C@H](CO)NC3=O)NC(=O)[C@H](CCCCN)NC(=O)[C@H](CC(=O)O)NC(=O)[C@H](CC(N)=O)NC(=O)[C@H](CC(=O)O)NC(=O)[C@@H]2CCCN2C1=O [[Gln28]GpTx-1(1-34)] (H-DCLGFMRKCIPDNDKCCRPNLVCSRTHQWCKYVF-NH2; disulfide 2-17, 9-23, 16-30) | 4
CC[C@H](C)[C@@H]1NC(=O)[C@@H]2CSSC[C@@H]3NC(=O)[C@H](C(C)C)NC(=O)[C@H](CC(C)C)NC(=O)[C@H](CC(N)=O)NC(=O)[C@@H]4CCCN4C(=O)[C@H](CCCCN(C)C)NC(=O)[C@H](CSSC[C@H](NC(=O)[C@@H](N)CC(=O)O)C(=O)N[C@@H](CC(C)C)C(=O)NCC(=O)N[C@@H](Cc4ccccc4)C(=O)N[C@@H](CCSC)C(=O)N[C@@H](CCCNC(=N)N)C(=O)N[C@@H](CCCCN)C(=O)N2)NC(=O)[C@H](CSSC[C@@H](C(=O)N[C@@H](CCCCN)C(=O)N[C@@H](Cc2ccc(O)cc2)C(=O)N[C@H](C(=O)N[C@@H](Cc2ccccc2)C(N)=O)C(C)C)NC(=O)[C@H](Cc2c[nH]c4ccccc24)NC(=O)[C@H](CCCCN)NC(=O)[C@H](Cc2c[nH]cn2)NC(=O)[C@H]([C@@H](C)O)NC(=O)[C@H](CCCNC(=N)N)NC(=O)[C@H](CO)NC3=O)NC(=O)[C@H](CCCCN)NC(=O)[C@H](CC(=O)O)NC(=O)[C@H](CC(N)=O)NC(=O)[C@H](CC(=O)O)NC(=O)[C@@H]2CCCN2C1=O [[K(Me2)18]GpTx-1(1-34)] (H-DCLGFMRKCIPDNDKCC[Lys(Me2)]PNLVCSRTHKWCKYVF-NH2; disulfide 2-17, 9-23, 16-30) | 5

Source: US9340590B2 (priority 2011, dated 2016)
